Source: US20230192677A1, “CYP11A1 INHIBITORS” (ORION CORPORATION, priority 2020, published 2023)

Biological target: T1, CYP11A1 (Homo sapiens, UniProt P05108)
T1 construct: human H295R adrenocortical carcinoma cell line was used as source of enzyme; endogenous in cells; host or cells: H295R human adrenocortical carcinoma cells
T1 sequence (P05108 40-521): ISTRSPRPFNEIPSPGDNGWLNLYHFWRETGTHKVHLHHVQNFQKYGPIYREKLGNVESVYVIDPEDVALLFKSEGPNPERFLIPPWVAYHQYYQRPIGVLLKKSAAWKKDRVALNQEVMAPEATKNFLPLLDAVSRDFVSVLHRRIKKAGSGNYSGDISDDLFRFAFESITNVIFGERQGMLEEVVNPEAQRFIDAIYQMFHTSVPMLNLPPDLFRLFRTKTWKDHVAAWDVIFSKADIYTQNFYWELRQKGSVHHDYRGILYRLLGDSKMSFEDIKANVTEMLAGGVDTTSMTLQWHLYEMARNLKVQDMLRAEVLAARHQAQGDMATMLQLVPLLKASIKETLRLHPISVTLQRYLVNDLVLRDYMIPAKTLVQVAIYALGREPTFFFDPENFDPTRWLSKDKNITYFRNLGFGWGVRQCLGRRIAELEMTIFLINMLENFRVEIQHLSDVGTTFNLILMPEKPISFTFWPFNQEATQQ
Assay: CYP11A1 inhibition, isocaproic acid release assay (IARA) in H295R cells
Format: cell-based
Conditions: human H295R adrenocortical carcinoma cell line, three days, 3 nM [24,25-3H]-labelled cholesterol; read-out: IC50 on CYP11A1 inhibition (Group)
Procedure: The ability of the test compounds to inhibit conversion of cholesterol to pregnenolone and isocaproic acid was measured by modification of isocaproic acid release assay (IARA) described by Ruangwises et al. (Biology of Reproduction 1991; 45(1):143-50) except that human H295R adrenocortical carcinoma cell line was used as source of enzyme and extraction was done with dextran-coated charcoal suspension (Isomaa, V. et al., Endocrinology 1982; 111(3):833-843). […] To determine the half maximal inhibitory concentration (IC50) of the test compounds on CYP11A1 inhibition, the cells were treated for three days with increasing concentrations of the test compounds in the presence of 3 nM [24,25-3H]-labelled cholesterol (American Radiolabelled Chemicals). The final DMSO concentration was 1%. Cell culture medium was extracted with dextran-coated charcoal suspension and the radiolabelled isocaproic acid was determined by mixing 100 μl of supernatant fraction in 200 μl of scintillation fluid (OptiPhase SuperMix, Perkin Elmer). Radioactivity was measured using a Microbeta scintillation counter (1450 MicroBeta Trilux, Wallac). All the test compounds were studied at 10 concentrations in duplicates.

SMILES	IC50
CS(=O)(=O)N1CCC(COc2coc(CN3Cc4ccc(-c5ncco5)cc4C3)cc2=O)CC1 [Compound 3, 5-((1-(Methylsulfonyl)piperidin-4-yl)methoxy)-2-((5-(oxazol-2-yl)isoindolin-2-yl)methyl)-4H-pyran-4-one]	< 0.1 µM
CS(=O)(=O)N1CCC(COc2coc(CN3Cc4ccc(-c5ccno5)cc4C3)cc2=O)CC1 [Compound 4, 2-((5-(Isoxazol-5-yl)isoindolin-2-yl)methyl)-5-((1-(methylsulfonyl)piperidin-4-yl)methoxy)-4H-pyran-4-one]	0.101 to 0.2 µM
CS(=O)(=O)N1CCC(COc2coc(CN3Cc4ccc(-c5ccon5)cc4C3)cc2=O)CC1 [Compound 5, 2-((5-(Isoxazol-3-yl)isoindolin-2-yl)methyl)-5-((1-(methylsulfonyl)piperidin-4-yl)methoxy)-4H-pyran-4-one]	< 0.1 µM
CS(=O)(=O)N1CCC(COc2coc(CN3Cc4ccc(-c5nncs5)cc4C3)cc2=O)CC1 [Compound 6, 2-((5-(1,3,4-Thiadiazol-2-yl)isoindolin-2-yl)methyl)-5-((1-(methylsulfonyl)-piperidin-4-yl)methoxy)-4H-pyran-4-one]	0.101 to 0.2 µM
CS(=O)(=O)c1cc(CN2Cc3ccc(-c4cnco4)cc3C2)ccc1OCC1CCN(S(C)(=O)=O)CC1 [Compound 13a, 5-(2-(3-(Methylsulfonyl)-4-((1-(methylsulfonyl)piperidin-4-yl)methoxy)-benzyl)isoindolin-5-yl)oxazole]	0.101 to 0.2 µM
CS(=O)(=O)c1cc(CN2Cc3ccc(-c4ncco4)cc3C2)ccc1OCC1CCN(S(C)(=O)=O)CC1 [Compound 13b, 2-(2-(3-(Methylsulfonyl)-4-((1-(methylsulfonyl)piperidin-4-yl)methoxy)-benzyl)isoindolin-5-yl)oxazole]	< 0.1 µM
CS(=O)(=O)c1cc(CN2Cc3ccc(-c4cncs4)cc3C2)ccc1OCC1CCN(S(C)(=O)=O)CC1 [Compound 14, 5-(2-(3-(Methylsulfonyl)-4-((1-(methylsulfonyl)piperidin-4-yl)methoxy)benzyl)-isoindolin-5-yl)thiazole]	< 0.1 µM
CS(=O)(=O)N1CCC(COc2coc(C(N3Cc4ccccc4C3)C(F)(F)F)cc2=O)CC1 (centres unmarked) [Compound 20, 5-((1-(Methylsulfonyl)piperidin-4-yl)methoxy)-2-(2,2,2-trifluoro-1-(isoindolin-2-yl)ethyl)-4H-pyran-4-one]	0.201 to 2 µM
CS(=O)(=O)c1cc(C(N2Cc3ccccc3C2)C(F)(F)F)ccc1OCC1CCN(S(C)(=O)=O)CC1 (centres unmarked) [Compound 21, 2-(2,2,2-Trifluoro-1-(3-(methylsulfonyl)-4-((1-(methylsulfonyl)piperidin-4-yl)methoxy)phenyl)ethyl)isoindoline]	0.101 to 0.2 µM
CS(=O)(=O)N1CCC(COc2ccc(CN3Cc4ccccc4C3)cc2S(=O)(=O)C2CC2)CC1 [Compound 26, 2-(3-(Cyclopropylsulfonyl)-4-((1-(methylsulfonyl)piperidin-4-yl)methoxy)-benzyl)isoindoline]	0.101 to 0.2 µM
CCS(=O)(=O)c1cc(CN2Cc3ccc(C(F)(F)F)cc3C2)ccc1OCC1CCN(S(C)(=O)=O)CC1 [Compound 27, 2-(3-(Ethylsulfonyl)-4-((1-(methylsulfonyl)piperidin-4-yl)methoxy)benzyl)-5-(trifluoromethyl)isoindoline]	< 0.1 µM
CCCCS(=O)(=O)c1cc(CN2Cc3ccccc3C2)ccc1OCC1CCN(S(C)(=O)=O)CC1 [Compound 28, 2-(3-(Butylsulfonyl)-4-((1-(methylsulfonyl)piperidin-4-yl)methoxy)benzyl)iso-indoline]	< 0.1 µM
CC(C)(C)OC(=O)N1CCC2(CC1)CC(Oc1coc(CN3CCc4ccccc4C3)cc1=O)C2 [Compound 32, tert-Butyl 2-((6-((3,4-dihydroisoquinolin-2(1H)-yl)methyl)-4-oxo-4H-pyran-3-yl)oxy)-7-azaspiro[3.5]nonane-7-carboxylate]	0.101 to 0.2 µM
CC(C)(C)OC(=O)N1CCC2(CC1)CC(COc1coc(CN3CCc4ccccc4C3)cc1=O)C2 [Compound 35, tert-Butyl 2-(((6-((3,4-dihydroisoquinolin-2(1H)-yl)methyl)-4-oxo-4H-pyran-3-yl)oxy)methyl)-7-azaspiro[3.5]nonane-7-carboxylate]	0.201 to 2 µM
O=c1cc(CN2CCc3ccccc3C2)occ1OCC1CC2(CCN(c3ncccn3)CC2)C1 [Compound 48, 2-((3,4-Dihydroisoquinolin-2(1H)-yl)methyl)-5-((7-(pyrimidin-2-yl)-7-azaspiro-[3.5]nonan-2-yl)methoxy)-4H-pyran-4-one]	0.101 to 0.2 µM
O=c1cc(CN2CCc3ccccc3C2)occ1OCC1CC2(C1)CN(c1ncccn1)C2 [Compound 50, 2-((3,4-Dihydroisoquinolin-2(1H)-yl)methyl)-5-((2-(pyrimidin-2-yl)-2-azaspiro-[3.3]heptan-6-yl)methoxy)-4H-pyran-4-one]	0.201 to 2 µM
N#Cc1ccc(N2CC3(CC(COc4coc(CN5CCc6ccccc6C5)cc4=O)C3)C2)nc1 [Compound 51, 6-(6-(((6-((3,4-Dihydroisoquinolin-2(1H)-yl)methyl)-4-oxo-4H-pyran-3-yl)oxy)-methyl)-2-azaspiro[3.3]heptan-2-yl)nicotinonitrile]	0.201 to 2 µM
O=c1cc(CN2CCc3ccccc3C2)occ1OC1CC2(CCN(S(=O)(=O)c3cccnc3)CC2)C1 [Compound 54, 2-((3,4-Dihydroisoquinolin-2(1H)-yl)methyl)-5-((7-(pyridin-3-ylsulfonyl)-7-azaspiro[3.5]nonan-2-yl)oxy)-4H-pyran-4-one]	0.201 to 2 µM
O=c1cc(CN2CCc3ccccc3C2)occ1OCC1CC2(C1)CN(S(=O)(=O)c1ccc(F)cc1)C2 [Compound 58, 2-((3,4-Dihydroisoquinolin-2(1H)-yl)methyl)-5-((2-((4-fluorophenyl)sulfonyl)-2-azaspiro[3.3]heptan-6-yl)methoxy)-4H-pyran-4-one]	0.101 to 0.2 µM
CS(=O)(=O)N1CC2(CC(COc3coc(CN4CCc5ccccc5C4)cc3=O)C2)C1 [Compound 62, 2-((3,4-Dihydroisoquinolin-2(1H)-yl)methyl)-5-((2-(methylsulfonyl)-2-azaspiro[3.3]heptan-6-yl)methoxy)-4H-pyran-4-one]	0.201 to 2 µM
CS(=O)(=O)c1cc(CN2Cc3ccccc3C2)ccc1OCC1CCN(S(C)(=O)=O)CC1 [Compound 65, 2-(3-(Methylsulfonyl)-4-((1-(methylsulfonyl)piperidin-4-yl)methoxy)benzyl)-isoindoline]	< 0.1 µM
CC(=O)[C@H]1CC[C@H](COc2ccc(CN3Cc4ccccc4C3)cc2S(C)(=O)=O)CC1 [Compound 67, 1-((1r,4r)-4-((4-(Isoindolin-2-ylmethyl)-2-(methylsulfonyl)phenoxy)methyl)-cyclohexyl)ethan-1-one]	< 0.1 µM
CN(C)C(=O)c1ccc(COc2ccc(CN3Cc4ccccc4C3)cc2S(C)(=O)=O)cc1 [Compound 68, 4-((4-(Isoindolin-2-ylmethyl)-2-(methylsulfonyl)phenoxy)methyl)-N,N-dimethylbenzamide]	< 0.1 µM
COCCN(C)C(=O)c1ccc(COc2ccc(CN3Cc4ccccc4C3)cc2S(C)(=O)=O)cc1 [Compound 69, 4-((4-(Isoindolin-2-ylmethyl)-2-(methylsulfonyl)phenoxy)methyl)-N-(2-methoxyethyl)-N-methylbenzamide]	< 0.1 µM
CCC(=O)N1CCC(COc2ccc(CN3Cc4ccccc4C3)cc2S(C)(=O)=O)CC1 [Compound 70]	0.101 to 0.2 µM
CCS(=N)(=O)c1ccc(COc2ccc(CN3Cc4ccccc4C3)cc2S(C)(=O)=O)cc1 (centres unmarked) [Compound 71, Ethyl(imino)(4-((4-(isoindolin-2-ylmethyl)-2-(methylsulfonyl)phenoxy)methyl)-phenyl)-λ^6-sulfanone]	< 0.1 µM
CS(=N)(=O)c1ccc(COc2ccc(CN3Cc4ccccc4C3)cc2S(C)(=O)=O)cc1 (centres unmarked) [Compound 72, Imino(4-((4-(isoindolin-2-ylmethyl)-2-(methylsulfonyl)phenoxy)methyl)phenyl)(methyl)-λ^6-sulfanone]	< 0.1 µM
CC(C)C(=O)N1CCC(COc2ccc(CN3Cc4ccccc4C3)cc2S(C)(=O)=O)CC1 [Compound 73, 1-(4-((4-(Isoindolin-2-ylmethyl)-2-(methylsulfonyl)phenoxy)methyl)piperidin-1-yl)-2-methylpropan-1-one]	< 0.1 µM
CN(C)C(=O)C1CCC(COc2ccc(CN3Cc4ccccc4C3)cc2S(C)(=O)=O)CC1 (centres unmarked) [Compound 74, 4-((4-(Isoindolin-2-ylmethyl)-2-(methylsulfonyl)phenoxy)methyl)-N,N-dimethylcyclohexane-1-carboxamide]	< 0.1 µM
